The assay deals with T1, human ERβ (Homo sapiens, UniProt Q92731).
T1 construct: purchased Life Technologies
T1 sequence (Q92731 whole entry): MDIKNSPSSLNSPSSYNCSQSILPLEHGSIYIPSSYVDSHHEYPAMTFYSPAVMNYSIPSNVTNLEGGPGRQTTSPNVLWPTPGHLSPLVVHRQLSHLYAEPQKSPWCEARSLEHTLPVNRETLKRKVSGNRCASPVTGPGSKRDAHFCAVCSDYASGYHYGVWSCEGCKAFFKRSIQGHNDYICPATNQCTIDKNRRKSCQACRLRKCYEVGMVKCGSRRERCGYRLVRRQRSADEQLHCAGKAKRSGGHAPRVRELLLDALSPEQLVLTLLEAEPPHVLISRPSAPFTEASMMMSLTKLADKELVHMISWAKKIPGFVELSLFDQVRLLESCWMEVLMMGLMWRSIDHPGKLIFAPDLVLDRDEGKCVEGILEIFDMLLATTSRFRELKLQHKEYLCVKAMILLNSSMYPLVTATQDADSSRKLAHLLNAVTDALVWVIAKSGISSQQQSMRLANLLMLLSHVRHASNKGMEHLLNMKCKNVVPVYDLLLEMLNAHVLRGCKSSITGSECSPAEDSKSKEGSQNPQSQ
Kind of assay: PolarScreen ERβ competitive binding assay (fluorescence polarization). Particulars: recombinant human ERβ 23 nM, 4.5 nM Fluormone ES2 Green, 2 h; approximate IC50; read-out: IC50 (displacement of Fluormone ES2 Green from ERβ).
In the case of `OC[C@H]1O[C@@H](Oc2cc3c(O)cc(O)cc3[o+]c2-c2ccc(O)c(O)c2)[C@H](O)[C@@H](O)[C@@H]1O` [C3G, cyanidin-3-glucoside], the concentration for half-maximal inhibition (IC50) worked out at 2.8 µM. With `OC[C@H]1O[C@@H](Oc2cc3c(O)cc(O)cc3[o+]c2-c2cc(O)c(O)c(O)c2)[C@H](O)[C@@H](O)[C@@H]1O` [D3G, delphinidin-3-glucoside] the figure was 9.7 µM. Consider `C[C@@H]1O[C@@H](OC[C@H]2O[C@@H](Oc3cc4c(O)cc(O)cc4[o+]c3-c3cc(O)c(O)c(O)c3)[C@H](O)[C@@H](O)[C@@H]2O)[C@H](O)[C@H](O)[C@H]1O` [D3R, delphinidin-3-rutinoside], for which the IC50 worked out at 2.3 µM.

Broadly, the IC50 is the concentration at which inhibition is half-maximal.
